# From patent publication US20210106703A1, “RADIOIMMUNOCONJUGATES IN COMBINATION WITH OTHER DRUGS AS TREATMENT AGAINST NHL” (Nordic Nanovector ASA, priority 2017, published 2021)
# Entries after “also recorded” stand apart in the source; their conditions may differ.
# Tests used:
# Format in all cases: cell-based, human
# [1] = test system: RIVA cells; test: Real Time Glo viability screen, Betalutin with PARP or cell cycle kinase inhibitors (Examples 4, 7); conditions: for BLISS analysis, combination with Betalutin versus expected additive effect: significant = more than twice the SD of Betalutin alone
# Method: (§1) DLBCL cell lines U2932 and RIVA were maintained in RPMI 1640-GlutaMAX medium (Gibco) supplemented with 15% fetal bovine serum (Biowest) and 1% penicillin-streptomycin (Gibco) at 37° C. in a humidified atmosphere containing 5% CO2. Cells were split twice a week 1:7 and diluted 2-4 days before start of the experiment, to ensure they are in exponential growth at the beginning of the experiment.
# (§2) Cells were treated in 6-well plates without shaking for 18 h with Betalutin at a final concentration of 1 μg/ml for U2932 and 0.5 μg/ml for RIVA. After treatment, PBS was added to the cells, and the cells pelleted. Cells were first resuspended in 1 ml PBS, then washed twice in PBS and finally diluted in growth medium to a final concentration of 2.5*10^6 cells/ml.
# (§3) Cells density measurements were performed the day before seeding. Based on these measurements cells were seeded in 384-well plates at a density of 3000 cells per well in a culturing volume of 25 μl (resulting in start titers: 120 000 cells/ml) using a robot. For measuring viability using Real Time Glo (Promega, WI, USA), the Cell Viability Substrate and NanoLuc® Enzyme were diluted 1:500 in growth medium, and 25 μL of diluted reagents dispensed in each well by a robot. All reagents were equilibrated to 37° C. Cells were incubated with the reaction mix for 1 h at 37° C. before the first measurement of luminescence. Measurements were repeated as often as required within 72 h after adding the reagents. A Tecan SPARK 10M plate reader (Tecan, SUI) was used to measure luminescence, with the integration time set to 1 sec.
# (§4) The screen was performed in 384-well plate with selected PARP inhibitors (stock solutions 10 mM in DMSO) acquired from SelleckChem (Selleckchem, TX, USA). To include no-drug controls, the drug panel (Table 6) was divided on two plates. Due to previous observations of cells growing poorly in wells located at the edges of the plates, the two outer most rows and columns were not used. As previously mentioned three different drug concentrations were used in the screen, 10 nM and 1 μM for U2932 and 10 and 100 nM for RIVA.
# (§5) Candidate hits were identified using the Bliss Independence test for synergy. The effect of each drug alone at each concentration was calculated as the fraction of dead cells as compared to control cells Fa=(1−(RLUdrug/avgRLUcontrol), a similar calculation was performed for the effect of Betalutin alone Fb=(1−(avgRLUBetalutin/avgRLUcontrol). Through the following equation we found the expected additive effect of the combination of drug+Betalutin: Expected effect (E)Fab=(Fa+Fb−Fa*Fb). We subtracted this expected effect from the measured effect (M)Fab=(1−(RLUDrug+Betalutin/avgRLUcontrol) to get a value (Diff)Fab representing how the measured effect differed from the expected additive effect of the combination. This value was normalized to the survival fraction of drug alone: (Diff)Fab#=(Diff)Fab/(1−Fa). Furthermore, to get a measure of how big the well-to-well variation was, we calculated the standard deviation for the effect of Betalutin alone in the 48 control wells on each plate: (STDEV)Fb=(RLUBetalutin/RLUcontrol)−(averageRLUBetalutin/averageRLUcontrol). Drugs with a value (Diff)Fab#two times higher than the standard deviation of Betalutin treated controls, (STDEV)Fb, were scored as hits.
# as §3, with “Measurements were repeated as often as required within 72 h after adding the reagents. A Tecan SPARK 10M plate reader (Tecan, SUI) was used to measure luminescence, with the integration time set to 1 sec.” left out
# [2] = test system: U-2932 cells; test: Real Time Glo viability screen and validation, Betalutin with PARP or cell cycle kinase inhibitors (Examples 4, 7); conditions: for BLISS analysis, combination with Betalutin versus expected additive effect: U-2932, significant = more than twice the SD of Betalutin alone
# Method: as §1, §2, §3, §4, §5
# as §3, with “Measurements were repeated as often as required within 72 h after adding the reagents. A Tecan SPARK 10M plate reader (Tecan, SUI) was used to measure luminescence, with the integration time set to 1 sec.” left out
# [3] = test system: U-2932 cells; test: as above; conditions: for Effect of monotreatment on proliferation: U-2932, validation screen, 0-1280 nM
# [4] = test system: DOHH2 cells; test: Apoptosis induction (Annexin V/7-AAD, Muse flow cytometer); conditions: DOHH2, 6 MBq/mL radiolabelled mAb for 18 h, peak time 72 h
# Method: (§6) Cells were harvested at 0, 2 h, 18 h, 1 d, 2 d, 3 d of RIT. At each time point, apoptosis was detected with […] from Merck Millipore (Annexin V Kit with 7-AAD) in the dark for 30 min at room temperature before analysis using Muse® flow cytometer
# [5] = test system: Ramos cells; test: as above; conditions: 6 MBq/mL radiolabelled mAb for 18 h, peak time 72 h
# Method: as §6
# [6] = test system: Rec-1 cells; test: as above; conditions: Rec-1, 6 MBq/mL radiolabelled mAb for 18 h, peak time 72 h
# Method: as §6
# [7] = test system: DOHH2 cells; test: Cell cycle analysis (PI, Muse flow cytometer); conditions: DOHH2, 6 MBq/mL, at 24 h
# Method: (§7) Cells were harvested at day 0, 2 h, 18 h, 1 d, 2 d, 3 d, of RIT then fixed in 70% ethanol at −20° C. for 3 hours and stained with Cell Cycle kit (with PI) reagent from Merck Millipore in the dark for 30 min at room temperature before analysis using a Muse® flow cytometer. The percentage of cells in G0/G1, S and G2/M phases was then calculated (mean of three experiments in triplicate).
# (§8) At different times after start of incubation, proteins were extracted to measure the CDK1 phosphorylation levels, in parallel, proliferation was determined and at 18 h and 24 h after start of incubation, the percentage of cells in G2/M was assessed (experiments were performed three time except the cell cycle analysis).
# (§9) Cells were harvested at 0 h, 2 h, 18 h, 1 d, 2 d, 3 d, and fixed in 70% ethanol at −20° C. for at least 3 h. After staining with the Muse® Cell Cycle Assay Kit (Merck Millipore, Molsheim, France) using propidium iodide in the dark at room temperature for 30 min, cell cycle distribution was analyzed using a Muse® flow cytometer. The percentage of cells in the G0/G1, S and G2/M was calculated (mean of three experiments in triplicate) and the effect of WEE-1 and MYT-1 kinase inhibitors on the cell cycle was assessed.
# [8] = test system: Ramos cells; test: Cell cycle analysis (PI, Muse flow cytometer); conditions: 6 MBq/mL, at 24 h
# Method: as §7, §8, §9
# [9] = test system: Rec-1 cells; test: Cell cycle analysis (PI, Muse flow cytometer); conditions: Rec-1, 6 MBq/mL, at 24 h
# Method: as §7, §8, §9
# [10] = test system: CD133 and CD44 at the DOHH2 cell surface; test: Expression of stem cell markers after RIT (flow cytometry); conditions: DOHH2, 6 MBq/mL for 18 h, up to 9 days post-RIT
# Method: Cells were harvested at 0, 2 h, 18 h and each day from 1 d to 10 d of RIT. At each time point, cells were fixed with PFA 4% for 10 minutes, washed twice with PBS and sterilely stored in PBS at 4° C. Stem cell markers were detected with anti-CD133-FITC (clone: AC133, Milteniy) and anti-CD44-APC (clone: IM7, Merck Millipore). 0.5×10^6 cells were saturated for 1 h in PBS-BSA 0.5%. Next cells were centrifuged and incubated with anti-CD133-FITC (2 μL) and anti-CD44-APC (0.125 μg) for 1 h at room temperature in the dark. Finally, cells were rinsed twice and analysed using Gallios® flow cytometer (Beckman Coulter).
# For a preliminary study, investigation of the expression of CD133 and CD44 at the surface of cells treated for 18 h with 6 MBq/mL ^177Lu-lilotomab and ^177Lu-rituximab was done.
# [11] = RIVA, drug 100 nM + Betalutin 0.5 μg/ml
# [12] = U-2932, drug 1 μM + Betalutin 1 μg/ml
Molecule,"Growth inhibitory effect, drug alone ([1]; RIVA, drug 10 nM)","Growth inhibitory effect, drug combined with Betalutin [1, 11]","BLISS analysis, combination with Betalutin versus expected additive effect ([1]; RIVA)","Growth inhibitory effect, drug alone ([2]; U-2932, drug 10 nM)","Growth inhibitory effect, drug combined with Betalutin [2, 12]","BLISS analysis, combination with Betalutin versus expected additive effect [2]",Effect of monotreatment on proliferation [3],further results
CN(C)Cc1ccc(-c2nc3cccc4c3n2CCNC4=O)cc1 [AG-14361],only a minor inhibitory effect; also recorded: no growth inhibitory effect,potentiated the proliferation inhibitory effect of Betalutin; also recorded: stronger growth inhibition than AG-14361 alone,strongest combinatory effect,only a minor inhibitory effect; also recorded: no growth inhibitory effect,potentiated the proliferation inhibitory effect of Betalutin; also recorded: stronger growth inhibition than AG-14361 alone,strongest combinatory effect,–,"Growth inhibitory effect, drug combined with Betalutin ([1]; RIVA, drug 10 nM + Betalutin 0.5 μg/ml): did not enhance the growth inhibitory effect of Betalutin; Growth inhibitory effect, drug alone ([1]; RIVA, drug 100 nM): inhibited proliferation; Growth inhibitory effect, drug combined with Betalutin ([2]; U-2932, drug 10 nM + Betalutin 1 μg/ml): did not enhance the growth inhibitory effect of Betalutin; Growth inhibitory effect, drug alone ([2]; U-2932, drug 1 μM): inhibited proliferation"
CC[C@@H]1C(=O)N(C)c2cnc(Nc3ccc(C(=O)NC4CCN(C)CC4)cc3OC)nc2N1C1CCCC1 [BI2536],–,–,significance was only reached in U-2932 cells,–,–,significance was only reached in U-2932 cells,blocked proliferation almost completely at concentrations above 40 nM,"inhibition at 0.01 µM ([1]; Homo sapiens, read-out: Inhibition of proliferation, drug alone): > 80%; inhibition at 0.01 µM ([2]; Homo sapiens, U2932, read-out: Inhibition of proliferation, drug alone): > 80%; Drug concentration at which synergism with Betalutin is evident (CI, Chou-Talalay) ([3]; U-2932, Betalutin 0.5, 1 or 2 μg/ml, day 5): 40 nM"
C[C@@H](Oc1cc(-n2cnc3ccc(CN4CCN(C)CC4)cc32)sc1C(N)=O)c1ccccc1C(F)(F)F [GSK461364],less potency than BI2536,–,significantly greater than the expected additive effect,less potency than BI2536,–,significantly greater than the expected additive effect,blocked proliferation almost completely at concentrations above 40 nM,–
COc1cc(Nc2ncc3c(n2)-c2ccc(Cl)cc2C(c2c(F)cccc2OC)=NC3)ccc1C(=O)O [MLN8237],insufficient to inhibit proliferation,enhanced,significantly greater effect than the expected additive effect,insufficient to inhibit proliferation,enhanced,–,impaired proliferation at concentrations up to 160 nM,"inhibition at 0.1 µM ([1]; Homo sapiens, 144 h, RIVA, drug 100 nM, day 6, read-out: Growth inhibition, drug alone): ~60%; inhibition at 1 µM ([2]; Homo sapiens, U2932, 144 h, U-2932, drug 1 μM, day 6, read-out: Growth inhibition, drug alone): ~40%"
CNCc1ccc(-c2[nH]c3cc(F)cc4c3c2CCNC4=O)cc1 [Rucaparib],–,potentiated the proliferation inhibitory effect of Betalutin; also recorded: stronger growth inhibition than Betalutin alone,larger than the expected additive effect,–,potentiated the proliferation inhibitory effect of Betalutin; also recorded: stronger growth inhibition than Betalutin alone,larger than the expected additive effect,–,"Growth inhibitory effect, drug alone ([1]; RIVA, all tested concentrations (10, 100 nM)): no growth inhibitory effect; Growth inhibitory effect, drug alone ([2]; U-2932, all tested concentrations (10 nM, 1 μM)): no growth inhibitory effect"
^177Lu-rituximab,–,–,–,–,–,–,–,Apoptosis level [4]: 97±3%; Apoptosis level [5]: 56±12%; Apoptosis level [6]: 79±16%; Proportion of cells showing a G2/M cell cycle arrest [7]: 38±2%; Proportion of cells showing a G2/M cell cycle arrest [8]: 56±13%; Proportion of cells showing a G2/M cell cycle arrest [9]: 40±11%; Proportion of cells expressing CD44 and CD133 [10]: strongly increased
